Measurements: patent publication US12049450B2, “Pyridyloxy-carboxylate derivative and preparation method therefor, herbicidal composition, and use” (Qingdao Kingagroot Chemical Compound Co., Ltd., priority 2018, dated 2024)

Key:
Assay in all cases: Post-emergence test experiment (greenhouse pot, spray at 2-3 leaf stage)
Assay type in all cases: in vivo
Details in all cases: 1000 g/ha; post-emergence spray at 2-3 leaf stage; assessed after 3 weeks; fresh weight inhibition rate
Abutilon theophrasti = tested on: Abutilon theophrasti
Method in brief: (§1)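 Activity graded levels 0-5 by fresh-weight inhibition (level 5 above 85%, level 0 below 5%), assessed 3 weeks after treatment. Plants grown in greenhouse pots were sprayed post-emergence at 2-3 leaves using acetone/tween-80 solutions with methyl oleate synergist (1.5 L/ha).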

Digitaria sanguinalis = tested on: Digitaria sanguinalis
Method in brief: as §1

Monochoria vaginalis = tested on: Monochoria vaginalis
Method in brief: as §1

Galium spurium = tested on: Galium spurium
Method in brief: as §1

Echinochloa crusgalli = tested on: Echinochloa crusgalli
Method in brief: as §1

Row | SMILES | Activity level (growth inhibition rate) Abutilon theophrasti (Abutilon theophrasti) | Activity level (growth inhibition rate) Digitaria sanguinalis (Digitaria sanguinalis) | Activity level (growth inhibition rate) Monochoria Vaginalis (Monochoria vaginalis) | Activity level (growth inhibition rate) Galium spurium (Galium spurium) | Activity level (growth inhibition rate) Echinochloa crusgalli (Echinochloa crusgalli)
1 | CC(Oc1nc(F)c(Cl)c(N)c1Cl)C(=O)OCc1cc2ccccc2o1 (stereo not shown) [Compound 173] | 5 (Level 5: the growth inhibition rate is greater than 85%) | 5 (Level 5: the growth inhibition rate is greater than 85%) | 5 (Level 5: the growth inhibition rate is greater than 85%) | 5 (Level 5: the growth inhibition rate is greater than 85%) | 5 (Level 5: the growth inhibition rate is greater than 85%)
2 | CC(Oc1nc(F)c(Cl)c(N)c1Cl)C(=O)SCc1ccc2ncoc2c1 (stereo not shown) [Compound 174] | 5 (Level 5: the growth inhibition rate is greater than 85%) | 5 (Level 5: the growth inhibition rate is greater than 85%) | 5 (Level 5: the growth inhibition rate is greater than 85%) | 5 (Level 5: the growth inhibition rate is greater than 85%) | 5 (Level 5: the growth inhibition rate is greater than 85%)
3 | Cc1nc2cc(COC(=O)C(C)Oc3nc(F)c(Cl)c(N)c3Cl)ccc2o1 (stereo not shown) [Compound 175] | 5 (Level 5: the growth inhibition rate is greater than 85%) | 5 (Level 5: the growth inhibition rate is greater than 85%) | 5 (Level 5: the growth inhibition rate is greater than 85%) | 5 (Level 5: the growth inhibition rate is greater than 85%) | 5 (Level 5: the growth inhibition rate is greater than 85%)
4 | CC(Oc1nc(F)c(Cl)c(N)c1Cl)C(=O)OCc1ccc2c(c1)OCO2 (stereo not shown) [Compound 176] | 5 (Level 5: the growth inhibition rate is greater than 85%) | 5 (Level 5: the growth inhibition rate is greater than 85%) | 5 (Level 5: the growth inhibition rate is greater than 85%) | 5 (Level 5: the growth inhibition rate is greater than 85%) | 5 (Level 5: the growth inhibition rate is greater than 85%)
5 | CC(Oc1nc(F)c(Cl)c(N)c1Cl)C(=O)OCc1cc2ccccc2s1 (stereo not shown) [Compound 177] | 5 (Level 5: the growth inhibition rate is greater than 85%) | 5 (Level 5: the growth inhibition rate is greater than 85%) | 5 (Level 5: the growth inhibition rate is greater than 85%) | 5 (Level 5: the growth inhibition rate is greater than 85%) | 5 (Level 5: the growth inhibition rate is greater than 85%)
6 | CC(Oc1nc(F)c(Cl)c(N)c1Cl)C(=O)OCc1nc2ccccc2s1 (stereo not shown) [Compound 178] | 5 (Level 5: the growth inhibition rate is greater than 85%) | 5 (Level 5: the growth inhibition rate is greater than 85%) | 5 (Level 5: the growth inhibition rate is greater than 85%) | 5 (Level 5: the growth inhibition rate is greater than 85%) | 5 (Level 5: the growth inhibition rate is greater than 85%)
7 | CC(Oc1nc(F)c(Cl)c(N)c1Cl)C(=O)SCCc1ccc2ccsc2c1 (stereo not shown) [Compound 179] | 5 (Level 5: the growth inhibition rate is greater than 85%) | 5 (Level 5: the growth inhibition rate is greater than 85%) | 5 (Level 5: the growth inhibition rate is greater than 85%) | 5 (Level 5: the growth inhibition rate is greater than 85%) | 5 (Level 5: the growth inhibition rate is greater than 85%)
8 | CC(Oc1nc(F)c(Cl)c(N)c1Cl)C(=O)OCc1ccc2ncsc2c1 (stereo not shown) [Compound 180] | 5 (Level 5: the growth inhibition rate is greater than 85%) | 5 (Level 5: the growth inhibition rate is greater than 85%) | 5 (Level 5: the growth inhibition rate is greater than 85%) | 5 (Level 5: the growth inhibition rate is greater than 85%) | 5 (Level 5: the growth inhibition rate is greater than 85%)
9 | CC(Oc1nc(F)c(Cl)c(N)c1Cl)C(=O)OCc1ccc2ccccc2c1 (stereo not shown) [Compound 181] | 5 (Level 5: the growth inhibition rate is greater than 85%) | 5 (Level 5: the growth inhibition rate is greater than 85%) | 5 (Level 5: the growth inhibition rate is greater than 85%) | 5 (Level 5: the growth inhibition rate is greater than 85%) | 5 (Level 5: the growth inhibition rate is greater than 85%)
10 | CC(Oc1nc(F)c(Cl)c(N)c1Cl)C(=O)SCc1ccc2cc(Cl)ccc2c1 (stereo not shown) [Compound 182] | 5 (Level 5: the growth inhibition rate is greater than 85%) | 5 (Level 5: the growth inhibition rate is greater than 85%) | 5 (Level 5: the growth inhibition rate is greater than 85%) | 5 (Level 5: the growth inhibition rate is greater than 85%) | 5 (Level 5: the growth inhibition rate is greater than 85%)
11 | COc1ccc2ccc(COC(=O)C(C)Oc3nc(F)c(Cl)c(N)c3Cl)cc2c1 (stereo not shown) [Compound 183] | 5 (Level 5: the growth inhibition rate is greater than 85%) | 5 (Level 5: the growth inhibition rate is greater than 85%) | 5 (Level 5: the growth inhibition rate is greater than 85%) | 5 (Level 5: the growth inhibition rate is greater than 85%) | 5 (Level 5: the growth inhibition rate is greater than 85%)
12 | CC(Oc1nc(F)c(Cl)c(N)c1Cl)C(=O)OCc1ccc2cnccc2c1 (stereo not shown) [Compound 184] | 5 (Level 5: the growth inhibition rate is greater than 85%) | 5 (Level 5: the growth inhibition rate is greater than 85%) | 5 (Level 5: the growth inhibition rate is greater than 85%) | 5 (Level 5: the growth inhibition rate is greater than 85%) | 5 (Level 5: the growth inhibition rate is greater than 85%)
13 | CC(Oc1nc(F)c(Cl)c(N)c1Cl)C(=O)OCc1ccc2nccnc2c1 (stereo not shown) [Compound 186] | 5 (Level 5: the growth inhibition rate is greater than 85%) | 5 (Level 5: the growth inhibition rate is greater than 85%) | 5 (Level 5: the growth inhibition rate is greater than 85%) | 5 (Level 5: the growth inhibition rate is greater than 85%) | 5 (Level 5: the growth inhibition rate is greater than 85%)
14 | CC(Oc1nc(F)c(Cl)c(N)c1Cl)C(=O)OCCc1cccc2cnncc12 (stereo not shown) [Compound 187] | 5 (Level 5: the growth inhibition rate is greater than 85%) | 5 (Level 5: the growth inhibition rate is greater than 85%) | 5 (Level 5: the growth inhibition rate is greater than 85%) | 5 (Level 5: the growth inhibition rate is greater than 85%) | 5 (Level 5: the growth inhibition rate is greater than 85%)
15 | CC(Oc1nc(F)c(Cl)c(N)c1Cl)C(=O)SCc1ccc2nnccc2c1 (stereo not shown) [Compound 188] | 5 (Level 5: the growth inhibition rate is greater than 85%) | 5 (Level 5: the growth inhibition rate is greater than 85%) | 5 (Level 5: the growth inhibition rate is greater than 85%) | 5 (Level 5: the growth inhibition rate is greater than 85%) | 5 (Level 5: the growth inhibition rate is greater than 85%)
16 | CC(Oc1nc(F)c(Cl)c(N)c1Cl)C(=O)OCc1ccc2c(c1)OCCO2 (stereo not shown) [Compound 189] | 5 (Level 5: the growth inhibition rate is greater than 85%) | 5 (Level 5: the growth inhibition rate is greater than 85%) | 5 (Level 5: the growth inhibition rate is greater than 85%) | 5 (Level 5: the growth inhibition rate is greater than 85%) | 5 (Level 5: the growth inhibition rate is greater than 85%)
17 | CNc1c(Cl)c(F)nc(OC(C)C(=O)OCc2ccccc2)c1Cl (stereo not shown) [Compound 190] | 5 (Level 5: the growth inhibition rate is greater than 85%) | 5 (Level 5: the growth inhibition rate is greater than 85%) | 5 (Level 5: the growth inhibition rate is greater than 85%) | 5 (Level 5: the growth inhibition rate is greater than 85%) | 5 (Level 5: the growth inhibition rate is greater than 85%)
